Results taken from US20120107417A1, “Effective Antitumor Treatments” (PHARMA MAR, S.A., priority 2000, published 2012).
Read-outs that look alike come from different tables or passages of the source.

Columns and labels:
[1] = system: human ovarian carcinoma HOC8; assay: ET-743/DDP against orthotopically transplanted HOC8; assay type: in vivo; conditions: HOC8 orthotopic, peritoneal nodules with ascites; single agents
sc transplanted TE671 = assay: ET-743/DDP against sc transplanted TE671; assay type: in vivo, human; conditions: single drugs at MTD or combination
ovarian 1 A 9 tumor = assay: ET-743/DDP against ovarian 1A9 tumor in vivo; design: species or system human; conditions: single agents
Source text: The ovarian 1 A 9 tumor that is normally resistant to both ET-743 and DDP as single agents, in combination produced a tumor growth inhibition greater than 50%.

HS-18 = assay: SRB cytotoxicity assay and Chou-Talalay combination index, HS-18; assay type: cell-based, human; conditions: Homo sapiens, 72 h; read-out: IC50 for human soft tissue sarcoma cells, HS-18
Description: (§1) Soft tissue sarcoma cell lines, HT-1080 and HS-18 were maintained as monolayer cultures in RP<I-1640 containing 10% fetal bovine serum.
(§2) Cytotoxicity to drugs was determined by SRB cytotoxicity assay carried out in 96-well microtiter plates as described. Cells were plated in duplicate wells (5000 cells/well) and exposed to drugs at different concentrations. Cells were fixed with 50% TCA solution for 1 h and 0.4% SRB (Sigma) was added to each well. After a 30 min incubation, the plate were washed with 1% acetic acid and read at 570 nm on a Biowhitaker microplate reader 2001. The wells with cells containing no drugs and with medium plus drugs but no cells were used as positive and negative controls, respectively.
(§3) Cells were seeded into 96-well plates, as described previously. Cells were treated with seven different concentrations of the single drugs or combinations mixture at 1:100 (ET-743: the other drugs) molar ratio. After 72 h exposure, growth inhibition was measured using the SRB assay.
(§4) Using the same experimental setup described above, we exposed cells to three different concentrations of drugs which represents the IC25, IC50, IC75 of ET-743, DXR, TMTX and paclitaxel, respectively. After 24 hours pre-treatment with ET743 or the combination drug, the second drugs were added to the respective wells for 48 h. Growth inhibition was determined using the SRB assay.)
(§5) The CI was calculated by the Chou-Talalay equation, which takes into account both potency (Dm or IC50) and the shape of the dose effect curve (the m value). The general equation for the classic isobologram (CI=1) is given by:
(§6) CI=(D)1/(Dx)1+(D)2/(Dx)2 (A)

HS-18 cells = assay: Cell cycle analysis (propidium iodide, FACS), HS-18; assay type: cell-based, human
Description: (§7) Exponentially growth cells were treated with or without drugs for several hours. Cells were then collected and fixed with ice-cold 70% methanol. DNA was stained with propidium iodide as described previously. Ten thousand stained cells were analyzed on a Becton Dickinson fluorescence-activated cell sorter (FACS).

HT-1080 cells = assay: Cell cycle analysis (propidium iodide, FACS), HT-1080; assay type: cell-based, human
Description: as §7

HT-1080 = assay: SRB cytotoxicity assay and Chou-Talalay combination index, HT-1080; assay type: cell-based, human; conditions: Homo sapiens, HT-1080, 72 h; read-out: IC50 for human soft tissue sarcoma cells, HT-1080
Description: as §1, §2, §3, §4, §5, §6

liver = conditions: rat
Description: In the light of the antiinflammatory activity of dex, we investigated its effect on liver damage induced by ET-743 in the rat. Female Wistar rats received a single iv dose of ET-743 (40 μg/kg). Some rats were pretreated with a single oral dose of dex either at 1, 5, 10 or 20 mg/kg 24 h prior to ET-743 treatment. Liver pathology and plasma concentrations of alkaline phophatase (ALP), aspartate aminotransferase (GOT) and total bilirubin (TB) were assessed up to 3 days post ET-743 administration. Conventional histological sections of the livers were examined by light microscopy.

[2] = 24 h after treatment with approximate IC50 dose
[3] = 72 h after treatment with approximate IC50 dose

| Compound | IC50 (HS-18) [nM] | % G1 (HS-18 cells; [2]) [%] | % G2-M (HS-18 cells; [2]) [%] | % S phase (HS-18 cells; [2]) [%] | % G1 (HS-18 cells; [3]) [%] | % G2-M (HS-18 cells; [3]) [%] | % S phase (HS-18 cells; [3]) [%] | % G1 (HT-1080 cells; [2]) [%] | % G2-M (HT-1080 cells; [2]) [%] | % S phase (HT-1080 cells; [2]) [%] | % G1 (HT-1080 cells; [3]) [%] | % G2-M (HT-1080 cells; [3]) [%] | % S phase (HT-1080 cells; [3]) [%] | IC50 (HT-1080) [nM] | other results |
| --- | --- | --- | --- | --- | --- | --- | --- | --- | --- | --- | --- | --- | --- | --- | --- |
| N.N.[Cl][Pt][Cl] [DDP, cisplatin] | – | – | – | – | – | – | – | – | – | – | – | – | – | – | sensitivity of tumor to single agent [1]: partially sensitive; antitumor effect in words (sc transplanted TE671): partially sensitive; sensitivity of tumor to single agent (ovarian 1 A 9 tumor): resistant |
| CC(=O)O[C@H]1C(=O)[C@@]2(C)[C@H]([C@H](OC(=O)c3ccccc3)[C@]3(O)C[C@H](OC(=O)[C@H](O)[C@@H](NC(=O)c4ccccc4)c4ccccc4)C(C)=C1C3(C)C)[C@]1(OC(C)=O)CO[C@@H]1C[C@@H]2O [Paclitaxel] | 10 | 32.8 | 15.5 | 52.5 | 23.5 | 26.2 | 58.7 | 45.4 | 17.3 | 37.3 | 86.0 | 5.0 | 9.0 | 1.3 | – |
| COc1cc(NCc2ccc3nc(N)nc(N)c3c2C)cc(OC)c1OC [TMTX, trimetrexate] | 70000 | 44.2 | 1.9 | 53.8 | 35.5 | 7.0 | 57.6 | 31.9 | 11.3 | 56.8 | 32.0 | 14.4 | 53.7 | 6 | – |
| C[C@@H]1C[C@H]2[C@@H]3CCC4=CC(=O)C=C[C@]4(C)[C@@]3(F)[C@@H](O)C[C@]2(C)[C@@]1(O)C(=O)CO [dex, dexamethasone] | – | – | – | – | – | – | – | – | – | – | – | – | – | – | protection against ET-743 liver damage (liver; dex 1 mg/kg single oral dose 24 h prior to ET-743): little protection; protection against ET-743 liver damage (liver; dex 5 mg/kg single oral dose 24 h prior to ET-743): moderately protective; effect on ET-743-induced histopathological changes and elevation of plasma ALP, GOT and TB (liver; dex 10 mg/kg single oral dose 24 h prior to ET-743 40 μg/kg iv): totally abrogated; effect on ET-743-induced histopathological changes and elevation of plasma ALP, GOT and TB (liver; dex 20 mg/kg single oral dose 24 h prior to ET-743 40 μg/kg iv): totally abrogated |
